In brackets after ≈: the same amount, converted by molar mass.
How the values were obtained:
Staphylococcus aureus = assay: In vitro antimicrobial activity against Staphylococcus aureus X1; type: functional
Streptococcus pneumoniae = assay: In vitro antimicrobial activity against Streptococcus pneumoniae; type: functional
Enterococcus faecium = assay: In vitro antimicrobial activity against Streptococcus faecium X66; type: functional, streptococcus fae-cium
Streptococcus pyogenes [1] = assay: In vivo effective dose against experimental infections in rodent caused by Streptococcus pyogenes C203 when administered orally; type: functional; settings: po
[2] = tested on: Staphylococcus epidermidis; assay: In vitro antimicrobial activity against Staphylococcus epidermidis EPI1; type: functional
Streptococcus pyogenes [3] = assay: In vivo effective dose against experimental infections in rodent caused by Streptococcus pyogenes C203 when administered sc; type: functional
Streptococcus pyogenes [4] = assay: In vitro antimicrobial activity against Streptococcus pyogenes C203; type: functional
Haemophilus influenzae = assay: In vitro antimicrobial activity against Haemophilus influenzae.; type: functional

SMILES	MIC (Staphylococcus aureus)	MIC (Streptococcus pneumoniae)	MIC (Enterococcus faecium)	ED50 (Streptococcus pyogenes [1])	MIC [2]	ED50 (Streptococcus pyogenes [3])	MIC (Streptococcus pyogenes [4])	MIC (Haemophilus influenzae)
CC[C@H]1OC(=O)C[C@@H](O)[C@H](C)[C@@H](O[C@@H]2O[C@H](C)[C@@H](O[C@H]3C[C@@](C)(O)[C@@H](O)[C@H](C)O3)[C@H](N(C)C)[C@H]2O)[C@@H](CCNCCc2ccccc2)C[C@@H](C)C(=O)/C=C/C(C)=C/[C@@H]1CO[C@@H]1O[C@H](C)[C@@H](O)[C@@H](OC)[C@H]1OC	1 µg/mL (≈ 0.979 µM)	8 µg/mL (≈ 7.83 µM)	128 µg/mL (≈ 125 µM)	76 mg/kg	2 µg/mL (≈ 1.96 µM)	9.1 mg/kg	1 µg/mL (≈ 0.979 µM)	64 µg/mL (≈ 62.7 µM)
CC[C@H]1OC(=O)C[C@@H](O)[C@H](C)[C@@H](O[C@@H]2O[C@H](C)[C@@H](O)[C@H](N(C)C)[C@H]2O)[C@@H](CCOc2ccc(CO)cc2)C[C@@H](C)C(=O)/C=C/C(C)=C/[C@@H]1CO[C@@H]1O[C@H](C)[C@@H](O)[C@@H](OC)[C@H]1OC	0.5 µg/mL (≈ 0.568 µM)	2 µg/mL (≈ 2.27 µM)	16 µg/mL (≈ 18.2 µM)	44 mg/kg	0.5 µg/mL (≈ 0.568 µM)	5 mg/kg	0.5 µg/mL (≈ 0.568 µM)	64 µg/mL (≈ 72.7 µM)
CC[C@H]1OC(=O)C[C@@H](O)[C@H](C)[C@@H](O[C@@H]2O[C@H](C)[C@@H](O[C@H]3C[C@@](C)(O)[C@@H](O)[C@H](C)O3)[C@H](N(C)C)[C@H]2O)[C@@H](CCN2CCCCCCC2)C[C@@H](C)C(=O)/C=C/C(C)=C/[C@@H]1CO[C@@H]1O[C@H](C)[C@@H](O)[C@@H](OC)[C@H]1OC	4 µg/mL (≈ 3.95 µM)	8 µg/mL (≈ 7.89 µM)	> 128 µg/mL	44 mg/kg	4 µg/mL (≈ 3.95 µM)	> 10 mg/kg	2 µg/mL (≈ 1.97 µM)	128 µg/mL (≈ 126 µM)
CCOC(=O)c1ccc(OCC[C@H]2C[C@@H](C)C(=O)/C=C/C(C)=C/[C@H](CO[C@@H]3O[C@H](C)[C@@H](O)[C@@H](OC)[C@H]3OC)[C@@H](CC)OC(=O)C[C@@H](O)[C@H](C)[C@H]2O[C@@H]2O[C@H](C)[C@@H](O)[C@H](N(C)C)[C@H]2O)cc1	0.5 µg/mL (≈ 0.542 µM)	1 µg/mL (≈ 1.08 µM)	8 µg/mL (≈ 8.68 µM)		0.5 µg/mL (≈ 0.542 µM)	> 10 mg/kg	0.5 µg/mL (≈ 0.542 µM)	
CC[C@H]1OC(=O)C[C@@H](O)[C@H](C)[C@@H](O[C@@H]2O[C@H](C)[C@@H](O)[C@H](N(C)C)[C@H]2O)[C@@H](CCI)C[C@@H](C)C(=O)/C=C/C(C)=C/[C@@H]1CO[C@@H]1O[C@H](C)[C@@H](O)[C@@H](OC)[C@H]1OC	0.5 µg/mL (≈ 0.566 µM)	4 µg/mL (≈ 4.53 µM)	16 µg/mL (≈ 18.1 µM)	19 mg/kg	0.25 µg/mL (≈ 0.283 µM)	4.3 mg/kg	0.5 µg/mL (≈ 0.566 µM)	32 µg/mL (≈ 36.2 µM)
CC[C@H]1OC(=O)C[C@@H](O)[C@H](C)[C@@H](O[C@@H]2O[C@H](C)[C@@H](O)[C@H](N(C)C)[C@H]2O)[C@@H](CCOc2ccc([N+](=O)[O-])cc2)C[C@@H](C)C(=O)/C=C/C(C)=C/[C@@H]1CO[C@@H]1O[C@H](C)[C@@H](O)[C@@H](OC)[C@H]1OC	0.5 µg/mL (≈ 0.559 µM)	1 µg/mL (≈ 1.12 µM)	4 µg/mL (≈ 4.47 µM)	5 mg/kg	0.5 µg/mL (≈ 0.559 µM)		1 µg/mL (≈ 1.12 µM)	16 µg/mL (≈ 17.9 µM)
CC[C@H]1OC(=O)C[C@@H](O)[C@H](C)[C@@H](O[C@@H]2O[C@H](C)[C@@H](O)[C@H](N(C)C)[C@H]2O)[C@@H](CC=O)C[C@@H](C)C(=O)/C=C/C(C)=C/[C@@H]1CO[C@@H]1O[C@H](C)[C@@H](O)[C@@H](O)[C@H]1OC	2 µg/mL (≈ 2.64 µM)	0.25 µg/mL (≈ 0.33 µM)	4 µg/mL (≈ 5.28 µM)	81 mg/kg	2 µg/mL (≈ 2.64 µM)	1.8 mg/kg	0.25 µg/mL (≈ 0.33 µM)	8 µg/mL (≈ 10.6 µM)
CC[C@H]1OC(=O)C[C@@H](O)[C@H](C)[C@@H](O[C@@H]2O[C@H](C)[C@@H](O[C@H]3C[C@@](C)(O)[C@@H](O)[C@H](C)O3)[C@H](N(C)C)[C@H]2O)[C@@H](CCN=[N+]=[N-])C[C@@H](C)C(=O)/C=C/C(C)=C/[C@@H]1CO[C@@H]1O[C@H](C)[C@@H](O)[C@@H](OC)[C@H]1OC	2 µg/mL (≈ 2.12 µM)	32 µg/mL (≈ 33.9 µM)	128 µg/mL (≈ 136 µM)		1 µg/mL (≈ 1.06 µM)	6.3 mg/kg	2 µg/mL (≈ 2.12 µM)	> 128 µg/mL
CC[C@H]1OC(=O)C[C@@H](O)[C@H](C)[C@@H](O[C@@H]2O[C@H](C)[C@@H](O)[C@H](N(C)C)[C@H]2O)[C@@H](CCSc2nnnn2C)C[C@@H](C)C(=O)/C=C/C(C)=C/[C@@H]1CO[C@@H]1O[C@H](C)[C@@H](O)[C@@H](OC)[C@H]1OC	0.5 µg/mL (≈ 0.573 µM)	2 µg/mL (≈ 2.29 µM)	16 µg/mL (≈ 18.3 µM)	50 mg/kg	0.25 µg/mL (≈ 0.287 µM)		0.25 µg/mL (≈ 0.287 µM)	
CC[C@H]1OC(=O)C[C@@H](O)[C@H](C)[C@@H](O[C@@H]2O[C@H](C)[C@@H](O)[C@H](N(C)C)[C@H]2O)[C@@H](CCOS(=O)c2ccccc2)C[C@@H](C)C(=O)/C=C/C(C)=C/[C@@H]1CO[C@@H]1O[C@H](C)[C@@H](O)[C@@H](OC)[C@H]1OC (stereo partly drawn)	0.25 µg/mL (≈ 0.278 µM)		4 µg/mL (≈ 4.45 µM)	45 mg/kg	0.25 µg/mL (≈ 0.278 µM)	5 mg/kg	0.25 µg/mL (≈ 0.278 µM)	8 µg/mL (≈ 8.91 µM)

Source: ChEMBL document CHEMBL1124186, “Synthesis and evaluation of tylosin-related macrolides modified at the aldehyde function: a new series of orally effective antibiotics” (1988)
